The source of these data is PMC7504770, “Mechanistic Insights into the Chaperoning of Human Lysosomal-Galactosidase Activity: Highly Functionalized Aminocyclopentanes and C-5a-Substituted Derivatives of 4-epi-Isofagomine” (Molecules, 2020).

The target in assay [1] is T1, recombinant human lysosomal β-glucocerebrosidase (GCase, GH30) (Homo sapiens, UniProt P04062).
T1 sequence (P04062 40-536): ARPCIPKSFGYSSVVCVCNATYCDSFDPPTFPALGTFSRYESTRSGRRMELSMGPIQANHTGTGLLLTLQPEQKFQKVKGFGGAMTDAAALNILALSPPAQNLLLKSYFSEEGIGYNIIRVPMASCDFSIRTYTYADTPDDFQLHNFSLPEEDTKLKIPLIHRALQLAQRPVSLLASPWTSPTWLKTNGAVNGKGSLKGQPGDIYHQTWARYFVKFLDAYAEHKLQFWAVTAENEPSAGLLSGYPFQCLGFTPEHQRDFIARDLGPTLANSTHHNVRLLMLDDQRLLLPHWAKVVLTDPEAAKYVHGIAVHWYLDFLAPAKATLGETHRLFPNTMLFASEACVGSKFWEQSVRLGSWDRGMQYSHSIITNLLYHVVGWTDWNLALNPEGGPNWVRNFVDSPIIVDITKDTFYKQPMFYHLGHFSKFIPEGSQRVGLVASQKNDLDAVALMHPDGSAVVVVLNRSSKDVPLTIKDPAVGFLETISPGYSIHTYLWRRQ
To be noted: read-out: Ki GCase (β-Glc) (GH30); cited from earlier work.

For assay [2], the target named is α-glucosidase from S. cerevisiae (GH13). The conditions noted are these: read-out: Ki S. cer. (α-Glc) (GH13); cited from earlier work.
Assay [3] concerns the target T2, β-galactosidase from bovine liver (GH35) (Bos taurus, UniProt Q58D55).
T2 construct: Bovine liver β-galactosidase; from tissue; host or cells: bovine liver
T2 sequence (Q58D55 28-653): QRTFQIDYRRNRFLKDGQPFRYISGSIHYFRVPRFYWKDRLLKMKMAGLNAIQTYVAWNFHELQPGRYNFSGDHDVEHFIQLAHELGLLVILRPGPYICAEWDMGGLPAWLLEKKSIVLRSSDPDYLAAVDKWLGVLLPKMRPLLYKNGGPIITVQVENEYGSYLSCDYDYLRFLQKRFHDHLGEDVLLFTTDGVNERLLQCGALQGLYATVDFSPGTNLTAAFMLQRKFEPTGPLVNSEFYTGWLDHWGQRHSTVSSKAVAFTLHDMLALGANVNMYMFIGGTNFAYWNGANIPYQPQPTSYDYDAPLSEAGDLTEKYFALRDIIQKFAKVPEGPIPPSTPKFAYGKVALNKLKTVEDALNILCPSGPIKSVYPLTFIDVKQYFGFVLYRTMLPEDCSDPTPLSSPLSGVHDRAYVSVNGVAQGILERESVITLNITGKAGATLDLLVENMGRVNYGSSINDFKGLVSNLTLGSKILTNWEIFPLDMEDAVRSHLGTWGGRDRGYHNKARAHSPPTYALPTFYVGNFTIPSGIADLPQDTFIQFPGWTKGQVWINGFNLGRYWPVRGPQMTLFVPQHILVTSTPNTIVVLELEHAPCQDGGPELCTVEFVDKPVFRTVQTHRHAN
The conditions noted are these: read-out: Ki Bovine liver (β-Gal) (GH35); cited from earlier work.

Assay [4] concerns the target lac Z β-galactosidase from E. coli (GH2) (Escherichia coli, UniProt P00722). The conditions noted are these: read-out: Ki E. coli (β-Gal) (GH2); cited from earlier work.
Assay [5] concerns the target T3, human lysosomal acid β-galactosidase (GH35) (Homo sapiens, UniProt P16278).
T3 construct: endogenous in cells; host or cells: normal human skin fibroblasts (homogenate)
T3 sequence (P16278 29-677): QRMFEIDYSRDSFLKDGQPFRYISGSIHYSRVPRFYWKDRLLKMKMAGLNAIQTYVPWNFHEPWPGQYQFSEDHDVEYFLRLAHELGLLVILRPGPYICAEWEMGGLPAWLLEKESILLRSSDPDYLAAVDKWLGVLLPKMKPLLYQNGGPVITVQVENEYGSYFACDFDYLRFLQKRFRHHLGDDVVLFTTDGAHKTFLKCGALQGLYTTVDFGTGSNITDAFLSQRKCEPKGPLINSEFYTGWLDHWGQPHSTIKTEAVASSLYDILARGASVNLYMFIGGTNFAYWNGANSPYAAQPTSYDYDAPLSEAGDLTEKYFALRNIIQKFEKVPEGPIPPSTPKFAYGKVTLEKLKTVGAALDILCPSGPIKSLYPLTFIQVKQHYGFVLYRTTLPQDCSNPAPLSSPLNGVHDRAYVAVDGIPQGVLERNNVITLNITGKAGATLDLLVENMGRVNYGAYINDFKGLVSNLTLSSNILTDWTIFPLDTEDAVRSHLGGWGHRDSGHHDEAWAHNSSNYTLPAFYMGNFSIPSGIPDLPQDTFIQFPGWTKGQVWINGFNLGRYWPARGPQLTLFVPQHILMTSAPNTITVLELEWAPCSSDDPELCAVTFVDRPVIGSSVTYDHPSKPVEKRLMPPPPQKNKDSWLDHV
As to the kind of experiment: IC50, modified β-Gal assay in normal fibroblast homogenate. It counts as biochemical. The conditions noted are these: for IC50: normal fibroblasts, 4-methylumbelliferyl-β-D-galactopyranoside, pH 4.0, read-out: β-Gal human lys. (GH35). The procedure: Human β-galactosidase and β-hexosaminidase activity measurements were performed in duplicate assays, unless otherwise stated. Fibroblast cells were harvested by trypsinization in 0.9% NaCl containing 0.01% Triton, homogenized by sonication (3 × 10 s, Sonifier Bandelin Sonopuls, Bandelin, Berlin, Germany) and centrifuged at 13,000 rpm for 2 min in a table top centrifuge (Biofuge Pico, Heraeus, Hanau, Germany). Protein amounts were determined according to the method of Lowry.
For assessment of β-Gal activity, 20 µL of cell homogenate were mixed with 100 µL of 0.5 mM 4-methylumbelliferyl-β-D-galactopyranoside (Sigma-Aldrich, St. Louis, MO, USA), in 100 mM citrate buffer (pH 4.0) containing 100 mM NaCl and 0.02% NaN3. After incubation at 37 °C for 30 min, the reaction was stopped by adding 2.5 mL 400 mM glycine/NaOH (pH 10.4).
Modified β-Gal assays were used to estimate the half maximal inhibitory concentration (IC50) of the particular chaperone. For IC50 determination, 0.001 to 100 µM of chaperone was added to the assay mixture. Activity was measured in normal fibroblasts. Data analysis was performed with Microcal™ Origin® v6.0 (Origin Lab, Northampton, MA, USA) using a non-linear curve fitting module based on sigmoid curve fitting.
Potential chaperones were dissolved in DMSO and diluted in 10 mM phosphate buffer (pH 7.0) containing 100 mM NaCl, 0.01% NaN3, and 0.01% Triton for the IC50-measurements and in MEM for the in-vivo tests. The total DMSO concentration in the media was less than 1% and had no effect on β-Gal activity or cell viability.

Some results are limits rather than exact numbers.

Sequence of lac Z β-galactosidase from E. coli (GH2) (P00722 2-1024): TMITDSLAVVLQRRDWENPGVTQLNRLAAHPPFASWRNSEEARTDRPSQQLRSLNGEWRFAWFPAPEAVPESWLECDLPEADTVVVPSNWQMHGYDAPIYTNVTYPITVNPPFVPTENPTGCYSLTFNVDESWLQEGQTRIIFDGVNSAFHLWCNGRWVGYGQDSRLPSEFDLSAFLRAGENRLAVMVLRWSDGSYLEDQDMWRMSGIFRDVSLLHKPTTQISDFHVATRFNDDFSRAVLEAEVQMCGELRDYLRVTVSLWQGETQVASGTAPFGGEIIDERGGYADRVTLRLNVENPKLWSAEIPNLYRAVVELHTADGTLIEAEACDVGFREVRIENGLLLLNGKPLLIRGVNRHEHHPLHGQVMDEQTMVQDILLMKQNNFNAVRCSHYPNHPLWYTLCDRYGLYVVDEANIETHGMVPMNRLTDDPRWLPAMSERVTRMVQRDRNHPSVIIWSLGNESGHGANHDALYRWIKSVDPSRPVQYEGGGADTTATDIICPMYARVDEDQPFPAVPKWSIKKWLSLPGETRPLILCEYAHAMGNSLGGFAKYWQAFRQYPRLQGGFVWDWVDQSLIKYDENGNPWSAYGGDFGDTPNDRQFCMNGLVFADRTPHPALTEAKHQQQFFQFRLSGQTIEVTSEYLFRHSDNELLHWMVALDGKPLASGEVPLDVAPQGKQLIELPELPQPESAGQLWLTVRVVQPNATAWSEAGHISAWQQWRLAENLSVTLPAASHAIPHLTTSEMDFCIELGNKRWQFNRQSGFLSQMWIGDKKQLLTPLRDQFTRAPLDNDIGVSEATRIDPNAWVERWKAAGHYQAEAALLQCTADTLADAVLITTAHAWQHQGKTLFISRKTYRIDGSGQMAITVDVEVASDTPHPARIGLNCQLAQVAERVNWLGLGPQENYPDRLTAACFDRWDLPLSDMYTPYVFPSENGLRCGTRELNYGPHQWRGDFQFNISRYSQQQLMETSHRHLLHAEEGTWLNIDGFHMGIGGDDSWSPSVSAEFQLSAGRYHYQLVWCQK

On to `CN(C)c1cccc2c(S(=O)(=O)NCCCCCC[C@@H]3NC[C@@H](O)[C@@H](O)[C@H]3CO)cccc12` [Compound 14], for which the inhibitory constant (Ki) (in general, the dissociation constant of the complex between target and ligand, obtained from inhibition or displacement) in assay [1] is 1.2 µM; in assay [2] it was above 1000 µM; in assay [3], 0.0014 µM; in assay [4] it was 0.0021 µM.
Consider `CCCCCCCCN[C@H]1[C@H](O)[C@@H](O)[C@@H](O)[C@H]1CO` [Compound 16], for which, in assay [5], the IC50 stood at 0.42 µM.
The same measure, in the same setting: the figure for `CN(C)c1cccc2c(S(=O)(=O)NCCCCCCN[C@H]3C[C@@H](O)[C@@H](O)[C@H]3CO)cccc12` [Compound 31, (1R,2S,3R,4S)-3-Hydroxymethyl-4-(6′-dansylaminohexylamino)cyclopentane-1,2-diol] is 82.5 µM.
For the compound `CN(C)c1cccc2c(S(=O)(=O)NCCCCCCN[C@H]3[C@H](O)[C@@H](O)[C@@H](O)[C@H]3CO)cccc12` [Compound 17], the figures for the inhibition constant (Ki) in assay [1], in assay [2] and in assay [4] were 0.0193 µM, above 1000 µM and 0.0101 µM, respectively.
As for `CN(C)c1cccc2c(S(=O)(=O)NCCCCCC[C@H]3NC[C@@H](O)[C@@H](O)[C@H]3CO)cccc12` [Compound 22], in assay [5], the IC50 worked out at 0.094 µM.
Regarding `CCCCCCCCNC1C=C(CO)C(O)C(O)C1O` (stereo not drawn) [Compound 1, N-octyl-epi-valienamine], the IC50 in assay [5] worked out at 0.51 µM. In addition, the Ki in assay [3] was 0.87 µM.
On to `CN(C)c1cccc2c(S(=O)(=O)NCCCCCCN[C@H]3[C@H](F)[C@@H](O)[C@@H](O)[C@H]3CO)cccc12` [Compound 37, (1S,2S,3S,4R,5R)-4-(6′-Dansylaminohexyl)amino-3-fluoro-5-hydroxymethylcyclopentane-1,2-diol], for which, in assay [5] (compared with hydroxylated inhibitor 17), the “fold weaker binding than 17, human lysosomal β-galactosidase” value is “approx. 90 fold”. In assay [5], the IC50 amounted to 34.9 µM.
